A value given as a limit tells only on which side of the number the result lay.

The EC50 is the concentration at which the effect is half-maximal.

The subject of data set [1] is Human immunodeficiency virus. As to the kind of experiment: Antiviral activity against HIV NL4-3 infected in MT-4 cells assessed as viral replication measured after 4 days by p24-ELISA. In kind it is functional, organism-based. The settings on record: Human immunodeficiency virus 1, NL4-3, MT4, 96 h. (In general: In an ELISA, binding on a coated surface is turned into a signal by an enzyme label.)

A short description of data set [2]: Therapeutic index, ratio of cytotoxicity against human MT4 cells to antiviral activity against HIV NL4-3. It is filed as toxicity, cell-based. The settings on record: read-out: TI.

For the molecule `CNc1ccccc1C(=O)O[C@@H]1[C@@H](C)[C@@]2(O)[C@@H](C=C(CO)C[C@]3(O)C(=O)C(C)=C[C@@H]23)[C@@H]2C(C)(C)[C@]12OC(C)=O`, the 50% effective concentration (EC50) in data set [1] came out at 44 nM. The selectivity ratio in data set [2] worked out at 5290.

In the case of `CCC/C=C/C=C/C=C\C(=O)O[C@@H]1[C@@H](C)[C@]2(O)[C@@H]3C=C(C)C(=O)[C@H]3CC(CO)=C[C@H]2[C@@H]2C(C)(C)[C@]12OC(C)=O`, the EC50 in data set [1] is 130 nM. Also, the selectivity ratio in data set [2] amounted to 161.

Consider `CNc1ccccc1C(=O)O[C@@H]1[C@@H](C)[C@]2(O)[C@@H]3C=C(C)C(=O)[C@H]3CC(CO)=C[C@H]2[C@@H]2C(C)(C)[C@]12OC(C)=O` [SAPINTOXIN A], for which the EC50 in data set [1] was 7.4 nM. In data set [2], the selectivity ratio was 1100.

Take `Cc1cn([C@H]2C[C@H](N=[N+]=[N-])[C@@H](CO)O2)c(=O)[nH]c1=O` [ZIDOVUDINE]: the EC50 in data set [1] was 20 nM. The selectivity ratio in data set [2] was above 22.

Values taken from ChEMBL document CHEMBL5126667, “Tigliane-Type Diterpene Esters from the Fruits of Shirakiopsis indica and Their Anti-HIV Activity” (J Nat Prod, 2022).
